# Test results from patent US12679878B2, “CRF2 receptor agonists and their use in therapy” (SANOFI, priority 2020, dated 2026).
# Where two headings read alike, the source gives them in different places. Starred links: 1 amine or outer side, 2 acyl side, 3 side chain; linkers in the order of their positions; H or OH if unused. Residues, ends and D or L forms follow the SMILES beside them. Groups on a side chain read outwards from the residue. *: point of attachment. C18 diacid = O=C(O)CCCCCCCCCCCCCCCCC(=O)*; γGlu = O=C(O)[C@H](CCC(=O)[*:2])N[*:1]; AEEA = NCCOCCOCC(=O)O
# Biological target: T1, human CRF2α receptor (Homo sapiens, UniProt Q13324)
# T1 construct: expressed in transfected cells; host or cells: TeloHEAC
# T1 sequence (Q13324 1-411): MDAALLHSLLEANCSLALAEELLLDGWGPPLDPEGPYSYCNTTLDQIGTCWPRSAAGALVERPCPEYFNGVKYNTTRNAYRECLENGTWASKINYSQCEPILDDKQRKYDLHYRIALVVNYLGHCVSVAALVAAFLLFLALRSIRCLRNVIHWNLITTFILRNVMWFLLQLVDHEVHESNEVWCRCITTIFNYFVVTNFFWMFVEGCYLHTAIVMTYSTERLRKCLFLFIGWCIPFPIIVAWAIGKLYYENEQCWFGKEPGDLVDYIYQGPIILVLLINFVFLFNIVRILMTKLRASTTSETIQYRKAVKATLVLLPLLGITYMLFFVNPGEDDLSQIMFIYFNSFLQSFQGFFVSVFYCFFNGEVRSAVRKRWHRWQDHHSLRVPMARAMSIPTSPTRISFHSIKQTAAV
# Test: cAMP agonism at human CRF2 α receptor in TeloHEAC cells (Example 7)
# Type: cell-based
# Conditions: cAMP HTRF, TeloHEAC cells stably expressing human CRF2 α
# Outline: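 Thawed frozen stably transfected cells in HBSS/20 mM HEPES (0% or 0.1% HSA) plus 2 mM IBMX were exposed to compound at 2000 cells/well for 30 min at room temperature. Intracellular cAMP was read by HTRF (665/620 nm ratio) after 1 h lysis; EC50 was derived with 1000 nM urocortin 2 set as 100%.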
# [1] = 0% HSA, read-out: EC50 [nM], 0% HSA
EC50 [1] [nM],"EC50 (0.1% HSA, read-out: EC50 [nM], 0.1% HSA) [nM]",Compound
50.9,–,CC[C@H](C)[C@H](N)C(=O)N[C@H](C(=O)N[C@@H](CC(C)C)C(=O)N[C@@H](CO)C(=O)N[C@@H](CC(C)C)C(=O)N[C@@H](CC(=O)O)C(=O)N[C@H](C(=O)N1CCC[C@H]1C(=O)N[C@H](C(=O)N[C@@H](CCCCN)C(=O)N[C@@H](CC(C)C)C(=O)N[C@@H](CCCCNC(=O)COCCOCCNC(=O)COCCOCCNC(=O)CC[C@H](NC(=O)CCCCCCCCCCCCCCCCC(=O)O)C(=O)O)C(=O)N[C@@H](CCC(N)=O)C(=O)N[C@@H](CCCCN)C(=O)N[C@@H](CC(C)C)C(=O)N[C@@H](CC(C)C)C(=O)N[C@@H](CCCCN)C(=O)N[C@@H](CCC(N)=O)C(=O)N[C@@H](CCC(=O)O)C(=O)N[C@@H](CCCNC(=N)N)C(=O)N[C@@H](CCC(N)=O)C(=O)N[C@@H](CCCCN)C(=O)N[C@@H](CCCCN)C(=O)N[C@@H](CCC(N)=O)C(=O)N[C@@H](CCCNC(=N)N)C(=O)N[C@@H](CCC(=O)O)C(=O)N[C@@H](CCCCN)C(=O)N[C@@H](C)C(=O)N[C@@H](CCCCN)C(=O)N[C@H](C(=O)N[C@@H](CC(N)=O)C(=O)N[C@H](C(=O)N[C@@H](CCC(N)=O)C(=O)N[C@H](C(=O)N[C@@H](CC(C)C)C(=O)N[C@@H](C)C(=O)N[C@@H](CCC(N)=O)C(=O)N[C@H](C(N)=O)C(C)C)[C@@H](C)CC)C(C)C)[C@@H](C)O)[C@@H](C)CC)C(C)C)C(C)C [compound 93] (H-IVLSLDVPIKLK([AEEA-AEEA-γGlu-C18 diacid])QKLLKQERQKKQREKAKTNVQILAQV-NH2; N-terminus assumed)
1.73,49.1,CC[C@H](C)[C@H](N)C(=O)N[C@H](C(=O)N[C@@H](CC(C)C)C(=O)N[C@@H](CO)C(=O)N[C@@H](CC(C)C)C(=O)N[C@@H](CC(=O)O)C(=O)N[C@H](C(=O)N1CCC[C@H]1C(=O)N[C@H](C(=O)N[C@@H](CCCCN)C(=O)N[C@@H](CC(C)C)C(=O)N[C@@H](CCCCNC(=O)COCCOCCNC(=O)COCCOCCNC(=O)CC[C@H](NC(=O)CCCCCCCCCCCCCCCCC(=O)O)C(=O)O)C(=O)N[C@@H](CCCCN)C(=O)N[C@H](C(=O)N[C@@H](CC(C)C)C(=O)N[C@@H](CC(C)C)C(=O)N[C@@H](CCCCN)C(=O)N[C@@H](CCC(N)=O)C(=O)N[C@@H](CCC(=O)O)C(=O)N[C@@H](CCCNC(=N)N)C(=O)N[C@@H](CCC(N)=O)C(=O)N[C@@H](CCCCN)C(=O)N[C@@H](CCCCN)C(=O)N[C@@H](CCC(=O)O)C(=O)N[C@@H](CCCNC(=N)N)C(=O)N[C@@H](CCC(=O)O)C(=O)N[C@@H](CCC(N)=O)C(=O)N[C@@H](C)C(=O)N[C@@H](CCC(=O)O)C(=O)N[C@H](C(=O)N[C@@H](CC(N)=O)C(=O)N[C@@H](CCCCN)C(=O)N[C@@H](CCC(N)=O)C(=O)N[C@H](C(=O)N[C@@H](CC(C)C)C(=O)N[C@@H](C)C(=O)N[C@@H](CCC(N)=O)C(=O)N[C@H](C(N)=O)C(C)C)[C@@H](C)CC)[C@@H](C)O)[C@@H](C)CC)[C@@H](C)CC)C(C)C)C(C)C [compound 94] (H-IVLSLDVPIKLK([AEEA-AEEA-γGlu-C18 diacid])KILLKQERQKKEREQAETNKQILAQV-NH2)
